Reference: patent US7396547B2, “Antiseptic composition” (priority 1999, dated 2008)

How the values were obtained:
[1] = Toxicity tests for regulatory authorities
From the text: PMD is the active ingredient in our MOSIGUARD™ insect repellant. We have conducted tests to show regulatory authorities that PMD is not toxic, and we have marketed our insect repellent for several years and there has been no report of any significant toxicity thereof. Potentially, therefore, the medical uses of PMD may be topical or systemic. Systemic administration may be by way of an oral dosage form or by a parenteral route, such as by intra-venous injection.

E. coli = assay: Cis PMD MIC/MBC determination, broth dilution and sub-culture; format: cell-based; set-up: key to bacterial growth: A “+” indicates bacterial growth; a “−” indicates that bacterial growth is prevented; conditions: for bacterial growth: overnight 37° C.
Experimental: MIC—minimum inhibitory concentration. This is the concentration of PMD which prevents bacterial growth. […] Thus, for E. Coli below, the minimum inhibitory concentration is 0.25% PMD in 1.25% ethanol.
MBC—minimum bactericidal concentration. This is the concentration of PMD which kills the bacteria. A “ ? ” indicates live bacteria are present.
Cis PMD was dissolved in Absolute Ethanol (0.2 g/ml) to give 20% solution. This was further diluted in water to give 10% in 50% EtOH. 200 μl was added to 0.8 ml Iso-sensitest broth to give a 2% solution in 10% EtOH. Serial 2-fold dilutions in ISB were then carried out and 20 μl E. coli (McFarlane 0.5) were added to each tube and incubated overnight at 37° C. After 18 hours, tubes showing no growth were sub-cultured.

Solubility in water = format: physicochemical
From the text: A composition for use in accordance with the invention can comprise PMD and a carrier.

certain strains of MRSA = assay: Tests against MRSA; format: cell-based, Staphylococcus aureus
From the text: In a further aspect, therefore, the invention provides the use of PMD against MRSA.

acne = assay: Effect against acne
From the text: The etiology of acne is not completely understood, but, in some instances, it is believed that acne has a bacterial etiology.

S. pyogenes = assay: Cis PMD MIC/MBC determination, broth dilution and sub-culture; format: cell-based; set-up: key: A “+” indicates bacterial growth; a “−” indicates that bacterial growth is prevented; conditions: overnight 37° C.
S. aureus (oxford) = assay: as above; format: cell-based; set-up: key: A “+” indicates bacterial growth; a “−” indicates that bacterial growth is prevented; conditions: overnight 37° C.
P. aeruginosa = assay: as above; format: cell-based; set-up: key: A “+” indicates bacterial growth; a “−” indicates that bacterial growth is prevented; conditions: overnight 37° C.
MRSA 15 = assay: as above; format: cell-based, Staphylococcus aureus; set-up: key: A “+” indicates bacterial growth; a “−” indicates that bacterial growth is prevented; conditions: overnight 37° C.
MRSA 16 = assay: as above; format: cell-based, Staphylococcus aureus; set-up: key: A “+” indicates bacterial growth; a “−” indicates that bacterial growth is prevented; conditions: overnight 37° C.

With C[C@H]1CC[C@H](C(C)(C)O)[C@H](O)C1 (racemic) [PMD, p-menthane-3,8-diol] the toxicity [1] was “not toxic”, the minimum inhibitory concentration (E. coli; in 1.25% ethanol) was 0.25% and the minimum bactericidal concentration (E. coli; in 2.5% ethanol) was 0.5%. The solubility in water (Solubility in water) was “poorly soluble”, the “effectiveness against MRSA” value (certain strains of MRSA) was “effective” and the effectiveness against acne (acne) was “effective”.

With CC1CCC(C(C)(C)O)C(O)C1 (stereo not drawn) [Cis PMD] the bacterial growth (E. coli; 0.06% PMD, 0.3% alcohol) was “+”, the bacterial growth (E. coli; 0.125% PMD, 0.6% alcohol) was “+” and the bacterial growth (E. coli; 0.25% PMD, 1.25% alcohol) was “−”. The bacterial growth (E. coli; 0.5% PMD, 2.5% alcohol) was “−”, the bacterial growth (E. coli; 1% PMD, 5% alcohol) was “−” and the bacterial growth (E. coli; 2% PMD, 10% alcohol) was “−”. For the same molecule, the bacterial growth (S. pyogenes; 0.06% PMD, 0.3% alcohol) was “+”, the bacterial growth (S. pyogenes; 0.125% PMD, 0.6% alcohol) was “+” and the bacterial growth (S. pyogenes; 0.25% PMD, 1.25% alcohol) was “−”. The bacterial growth (S. pyogenes; 0.5% PMD, 2.5% alcohol) was “−”, the bacterial growth (S. pyogenes; 1% PMD, 5% alcohol) was “−” and the bacterial growth (S. pyogenes; 2% PMD, 10% alcohol) was “−”. The bacterial growth (S. aureus (oxford); 0.06% PMD, 0.3% alcohol) was “+”, the bacterial growth (S. aureus (oxford); 0.125% PMD, 0.6% alcohol) was “+” and the bacterial growth (S. aureus (oxford); 0.25% PMD, 1.25% alcohol) was “+”. The bacterial growth (S. aureus (oxford); 0.5% PMD, 2.5% alcohol) was “−”, the bacterial growth (S. aureus (oxford); 1% PMD, 5% alcohol) was “−” and the bacterial growth (S. aureus (oxford); 2% PMD, 10% alcohol) was “−”. For the same molecule, the bacterial growth (P. aeruginosa; 0.06% PMD, 0.3% alcohol) was “+”, the bacterial growth (P. aeruginosa; 0.125% PMD, 0.6% alcohol) was “+” and the bacterial growth (P. aeruginosa; 0.25% PMD, 1.25% alcohol) was “+”. For the same molecule, the bacterial growth (P. aeruginosa; 0.5% PMD, 2.5% alcohol) was “−”, the bacterial growth (P. aeruginosa; 1% PMD, 5% alcohol) was “−” and the bacterial growth (P. aeruginosa; 2% PMD, 10% alcohol) was “−”. The bacterial growth (MRSA 15; 0.06% PMD, 0.3% alcohol) was “+”, the bacterial growth (MRSA 15; 0.125% PMD, 0.6% alcohol) was “+” and the bacterial growth (MRSA 15; 0.25% PMD, 1.25% alcohol) was “+”. For the same molecule, the bacterial growth (MRSA 15; 0.5% PMD, 2.5% alcohol) was “−”, the bacterial growth (MRSA 15; 2% PMD, 10% alcohol) was “−” and the bacterial growth (MRSA 16; 0.06% PMD, 0.3% alcohol) was “+”. For the same molecule, the bacterial growth (MRSA 16; 0.125% PMD, 0.6% alcohol) was “+”, the bacterial growth (MRSA 16; 0.25% PMD, 1.25% alcohol) was “+” and the bacterial growth (MRSA 16; 0.5% PMD, 2.5% alcohol) was “−”. The bacterial growth (MRSA 16; 1% PMD, 5% alcohol) was “−” and the bacterial growth (MRSA 16; 2% PMD, 10% alcohol) was “−”.
